Results from patent US11298396B2, “Agent for inhibiting or reducing light sensitivity” (Osaka University, priority 2017, dated 2022).
Residues, ends and D or L forms follow the SMILES beside them. *: point of attachment. Cbz = O=C(OCc1ccccc1)*

Key:
[1] = test system: Klhl18 protein; experiment: Inhibition of Klhl18-mediated degradation of Unc119 in transfected HEK293T cells, Western blotting; format: cell-based, mouse
Experimental: Retinal tissue was harvested from one month old Klhl18 KO mice and wild-type (C57BL/6J strain) mice (purchased from Japan SLC) according to the conventional method. The retinal tissue was dissolved in 2× sample buffer (0.1 M Tris-HCl (pH 6.8), 1% SDS, 5% β-mercaptoethanol, 10% glycerol, and 0.02% BPB) and heat-treated at 100° C. for 5 minutes. SDS-PAGE was performed and the separated proteins on the gel were electrically transferred to a PVDF membrane (Merck Millipore) at 12 V for 90 minutes. The PVDF membrane was blocked with blocking solution (5% skim milk and 0.05% Tween 20/TBS) with shaking at room temperature for 1 hour. The PVDF membrane was reacted with a primary antibody diluted in the blocking solution at 4° C. overnight. The primary antibody was anti-Unc119 antibody (mouse monoclonal, a gift from Dr. Haeseleer (University of Washington, USA) (Haeseleer, 2008), 1:10 dilution) or α-Tublin antibody (mouse monoclonal, Sigma, 1:6,000 dilution). After completion of reaction with the primary antibody, the PVDF membrane was washed three times with 0.05% Tween 20/TBS with shaking at room temperature for 10 minutes. The PVDF membrane was reacted with a secondary antibody diluted in the blocking solution at room temperature for 1 hour. The secondary antibody was anti-mouse IgG (H+L) HRP-conjugated antibody (goat polyclonal, Zymed, 1:6,000 dilution). After completion of reaction with the secondary antibody, the PVDF membrane was again washed three times with 0.05% Tween 20/TBS with shaking at room temperature for […]. The PVDF membrane was reacted with chemiluminescent reagent (Chemi-Lumi One (Nacalai Tesque)) or Pierce Western Blotting Substrate Plus (Thermo Fisher Scientific). The membrane was exposed to an X-ray film, and the protein of interest was detected using a film processor.
The HEK293T cell line was cultured in DMEM (Wako Pure Chemical Industries) supplemented with antibiotics (penicillin (100 μg/mL)/streptomycin (100 μg/mL)) and 10% FBS at 37° C. under 5% CO2. […]

[2] = test system: BALB/c mice; experiment: Light-induced damage in mice, fluorescence immunostaining of the retina; format: in vivo, mouse; details: 60 mg/kg subcutaneous; blue light damage for three days; vs DMSO control (FIG. 25)
Experimental: Fluorescent immunostaining was performed using the mouse retinal sections. Specifically, the mouse retinal sections prepared in the same manner as in Example 2 (2) were washed twice with PBS, and blocked with blocking buffer (4% Normal donkey serum/0.1% Triton X-100/PBS) at room temperature for 1 hour. The sections were reacted with a primary antibody at 4° C. overnight. The sections were washed three times with PBS, and reacted with a secondary antibody at room temperature for 2 hours. The primary antibody was anti-Rhodopsin antibody (rhodopsin, rabbit polyclonal, Santa Cruz, 1:500 dilution) or anti-S-opsin antibody (S-opsin (blue cone opsin), goat polyclonal, Santa Cruz, 1:500 dilution). The secondary antibody was Alexa Flour 488-conjugated anti-rabbit antibody (Thermo Fisher Scientific, 1:500 dilution) or Cy3 antibody (Jackson ImmunoResearch Laboratories, 1:500 dilution). After completion of reaction with the secondary antibody, the specimens were washed three times with PBS and sealed in mounting medium. All fluorescence images were taken under a confocal laser scanning microscope (LSM 700, Carl Zeiss).
MLN4924 (Chemscene) (60 mg/kg) was subcutaneously injected into the back of 4-weeks-old BALB/c mice (Japan SLC) that were kept in a dark place for 7 hours to be adapted to darkness. […]

[3] = test system: BALB/c mice; experiment: Light-induced damage in mice, thickness of the photoreceptor layer (toluidine blue staining); format: in vivo, mouse; details: 60 mg/kg subcutaneous; blue light damage for three days; vs DMSO control (FIG. 26)
Experimental: Retinal sections of wild-type control mice and Klhl18 KO mice with light-induced damage were prepared in the same manner as in Example 2 (2). The mouse retinal sections were used to measure the thickness of the photoreceptor layer in the same manner as in Example 5. Specifically, the sections were washed with PBS and stained with 0.1% toluidine blue (Sigma)/PBS for 1 minute. The sections were washed three times with PBS, and sealed in mounting medium. The sealed specimens were observed under an upright microscope equipped with a differential interference contrast objective lens. The thickness of the photoreceptor layer was determined by measuring the distance from the optic nerve.
MLN4924 (Chemscene) (60 mg/kg) was subcutaneously injected into the back of 4-weeks-old BALB/c mice (Japan SLC) that were kept in a dark place for 7 hours to be adapted to darkness. Four hours later, the mice were placed in a box with four mirrored walls and a mirrored floor, and exposed to blue LED light. The wavelength of the light was about 450 nm, and the light reaching the mice was at about 7000 lux. After three hours of exposure to the blue light, the mice were kept in the normal environment for 10 hours. This cycle was repeated for three days. […]

[4] = test system: BALB/c mice; experiment: Light-induced damage in mice, electroretinogram (ERG) recording; format: in vivo, mouse; details: 60 mg/kg subcutaneous; blue LED about 450 nm, about 7000 lux, 3 hours, cycle repeated for three days; ERG four days after final exposure; vs DMSO control (FIG. 24)
Experimental: Wild-type or Klhl18 KO mice of postnatal 2 months were light adapted or dark adapted. Light adaptation was performed at a light level of about 1000 lux for 1 hour or longer, and dark adaptation was performed by keeping the mice in a dark room for 4 hours or longer. Anesthesia was performed on dark-adapted or light-adapted mice with intraperitoneal injection of ketamine (100 mg/kg body weight per mouse) and xylazine (10 mg/kg body weight per mouse) in saline. Pupils were dilated with topical administration to the eyes with a mixture of 0.5% tropicamide and 0.5% phenylephrine HCl. ERG responses were measured with LED electrodes that emit a white flash (PuREC; Mayo Corporation). The mouse cornea was brought into contact with the electrodes, and stimulated with the stimulating flash using LED Visual Stimulator (LS-100, Mayo Corporation), and the ERG waves were recorded by TA-100 (Mayo Corporation) (FIGS. 7A and 8A). Strobe light stimulation with four levels of stimulus intensities ranging from −4.0 to 1.0 log cd−s/m^2 (−4.0, −3.0, −1.0 and 1 log cd−s/m^2) were used for the scotopic ERGs to measure the function of rod photoreceptor cells. […] From the wave data, a-waves and b-waves were quantified and expressed as the mean value±standard error. The photopic ERGs were recorded on a rod-suppressing white background of 1.3 log cd/m^2. […]

Molecule: CC(C)C[C@@H](C=O)NC(=O)[C@H](CC(C)C)NC(=O)[C@H](CC(C)C)NC(=O)OCc1ccccc1 [MG-132] (Cbz-Leu-Leu-Leu-aldehyde)
- degradation of the target protein Unc119 by the full-length Klhl18 protein ([1]; HEK293T cells, MG-132 final concentration 10 μM, 6 hours, vs 0.1% DMSO (FIG. 11)): inhibits degradation of the target protein Unc119 by the full-length Klhl18 protein

Molecule: NS(=O)(=O)OC[C@@H]1C[C@@H](n2ccc3c(N[C@H]4CCc5ccccc54)ncnc32)C[C@@H]1O [MLN4924]
- signal intensities and thickness of cone photoreceptor cells (markers: S-opsin and M-opsin) [2]: better retained as compared with those in the control mice
- signal intensities and thickness of rod photoreceptor cells (marker: rhodopsin) [2]: better retained as compared with those in the control mice
- degradation of the target Unc119 protein by the full-length Klhl18 protein ([1]; HEK293T cells, MLN4924 final concentration 0.3 μM, 6 hours, vs 0.3% DMSO (FIG. 15)): inhibits degradation of the target Unc119 protein by the full-length Klhl18 protein
- thickness of the photoreceptor layer in the retina [3]: better maintained as compared with that of the control mice
- electric amplitudes of the a-waves (photoreceptor cell activity) [4]: higher than those in the control mice
- electric amplitudes of the b-waves (bipolar cell activity) [4]: higher than those in the control mice

B1: C-terminal protein (C-terminal 298 residues) of the mouse Klhl18 gene: C-terminal 298 residues of mouse Klhl18 protein, expressed from plasmid pCAG-N-3× FLAG-C-Klhl18; acts as dominant negative (protein)
chain: RTRPRCCTSIAGLIYAVGGLNSAGDSLNVVEVFDPIANRWEKCHPMTTARSRVGVAVVNGLLYAIGGYDGQLRLSTVEAYNPETDTWTRVGSMNSKRSAMGTVVLDGQIYVCGGYDGNSSLNSVETYSPETDKWTVVTPMSSNRSAAGVTVFEGRIYVSGGHDGLQIFSSVEHYNHHTATWHPAASMLNKRCRHGAASLGSKMFVCGGYDGSGFLSIAEMYSSVADQWCLIVPMHTRRSRVSLVASCGRLYAVGGYDGQSNLSSVEMYDPETDRWTFMAPMACHEGGVGVGCIPLLTI
modifications: left off: small tags and cut ends
notes: C-terminal 298 residues of mouse Klhl18 protein, expressed from plasmid pCAG-N-3× FLAG-C-Klhl18; acts as dominant negative
- degradation of the target protein Unc119 by the full-length Klhl18 protein ([1]; HEK293T cells co-transfected with FLAG-Klhl18, FLAG-C-terminal Klhl18 and HA-Unc119 plasmids, anti-HA Western blot (FIG. 10)): inhibits degradation of the target protein Unc119 by the full-length Klhl18 protein
